# Data reported in patent US10206906B2, “Synergistic combination of a phenolic-rich maple syrup extract and an antibiotic” (priority 2015, dated 2019).
# How the values were obtained:
# [1] = tested on: outer membrane of P. mirabilis HI4320; assay: Outer membrane permeabilization, NPN uptake assay; type: cell-based, Proteus mirabilis; settings: sub-MIC; concentration giving maximal increase in NPN uptake
# Description: The cells are harvested, washed with 5 mM HEPES buffer (pH 7.2), and resuspended in the same volume (10 mL) of 5 mM HEPES buffer (pH 7.2) containing 1 mM N-ethylmaleimide (NEM, Sigma-Aldrich Canada). Aliquots (1 mL) are mixed with NPN to a final concentration of 10 μM (in cell suspension) and fluorescence is measured using the microplate reader (ex/em 350/420 nm).
# [2] = tested on: P. mirabilis HI4320 biofilm; assay: Biofilm formation, microtitre plate crystal violet assay; type: cell-based, Proteus mirabilis; settings: p<0.05
# Description: (§1) Biofilm formation is quantified using the standard microtitre plate model. […] Aliquots (100 μL) of these cultures are transferred into the wells of polystyrene, flat bottom, non-treated 96 well plates (Falcon™, Corning™), in triplicate. For all assays, biofilms are allowed to develop for 16 h at 37° C. under static conditions, after which OD600 values are recorded, the spent broth is decanted from the wells, and the wells are gently rinsed three times with DI water. The washed biofilm is stained with crystal violet (CV). For CV stain assay, 100 μL of 0.1% (w/v) CV is loaded in each well and the plates are incubated for 15 min under static conditions at room temperature. The wells are subsequently rinsed with DI water to remove excess dye and the CV adsorbed to the biomass in each well is solubilized in 100 μL of absolute ethanol for 10 min. The solubilized CV is then quantified (as OD570) using a microplate reader. Control experiments are performed with cell-free broth to adjust for the background signal.
# [3] = tested on: E. coli CFT073; assay: Determination of minimum inhibitory concentration (MIC); type: cell-based; settings: Escherichia coli, CFT073, 18 h
# Description: (§2) A range of concentration of antibiotics, ciprofloxacin (0.0003-0.25 μg mL^−1) and carbenicillin (0.5-512 μg mL^−1), are chosen due to their known potency against all four bacterial strains. Dilutions are prepared in flat bottom, 96 well microtitre plates (Falcon™, Corning™, Fisher Scientific, ON, Canada). Each well of a microtitre plate is then inoculated with the desired bacterial strain (grown in MHB-II and diluted to […]) and the plate is incubated at 37° C. for 18 h under static conditions. Bacterial growth is assessed by (i) monitoring the optical density of the cell suspension in each well at 600 nm (OD600 nm), and (ii) the resazurin microtitre plate assay. In the resazurin microtitre plate assay, each well of a microtitre plate is supplemented with 20 μM resazurin, incubated in the dark for 20 min at room temperature, followed by fluorescence measurements at ex/em 570/590 nm using a TECAN Infinite M200 Pro microplate reader (Tecan Group Ltd., Switzerland). The lowest concentration of a compound able to prevent increase in OD600 nm and resazurin fluorescence intensity is recorded as the MIC for that compound.
# [4] = tested on: P. mirabilis HI4320; assay: as above; type: cell-based; settings: Proteus mirabilis, HI4320, 18 h
# Description: as §2
# [5] = tested on: P. aeruginosa PA14; assay: as above; type: cell-based; settings: Pseudomonas aeruginosa, PA14, 18 h
# Description: as §2
# [6] = tested on: P. aeruginosa PAO1; assay: as above; type: cell-based; settings: Pseudomonas aeruginosa, PAO1, 18 h
# Description: as §2
# [7] = tested on: P. mirabilis HI4320; assay: Bacterial colony forming ability (CFU counts after exposure); type: cell-based, Proteus mirabilis; settings: log decrease vs untreated control, 4 × MIC, 10 min, CTAB 10 μM
# Description: (§3) The BacLight kit (L-13152, Invitrogen™, Life Technologies Inc., Canada) is used to assess cell membrane damage. Overnight bacterial cultures are diluted 1:40 in fresh MHBII broth to a final volume of 5 mL, grown to an OD600 of 0.5-0.6, washed with filter-sterilized 10 mM phosphate buffered saline (PBS, pH 7.0) and resuspended in 1/10 of the original volume. […] Cultures are incubated at room temperature (21±2° C.) on a tube rocker for 10 min. At the end of the incubation period, an aliquot is taken for CFU counts and the remaining suspension is washed with 10 mM PBS and resuspended to an OD600) of 0.3. An aliquot (100 μL) of each bacterial suspension is removed and added to a 96-well, black, clear-bottom plate (Corning™, Fisher Scientific, ON, Canada) along with an equal volume of the BacLight™ reagent (2× stock solution, L13152, Invitrogen™, Life Technologies Inc., Canada) and the plates are incubated for 10 min at room temperature in the dark. At the end of the incubation period, fluorescence intensity is recorded for both kit components, SYTO-9 (ex/em 485/530 nm) and propidium iodide (ex/em 485/645 nm), using the microplate reader. Fluorescence readings from samples are normalized to the values obtained from untreated control to determine the ratio of membrane compromised cells to cells with intact membrane. Cetyltrimethylammonium bromide (CTAB, Sigma-Aldrich Canada), a cationic detergent that is known to cause membrane damage, is used at concentration of 10 μM as a positive control for membrane disruption.
# [8] = tested on: P. aeruginosa PAO1 biofilm; assay: Biofilm formation, microtitre plate crystal violet assay; type: cell-based, Pseudomonas aeruginosa; settings: p<0.05
# Description: as §1
# [9] = tested on: P. aeruginosa PA14 biofilm; assay: as above; type: cell-based, Pseudomonas aeruginosa; settings: p<0.05
# Description: as §1
# [10] = tested on: cell membrane of P. mirabilis HI4320; assay: BacLight membrane integrity assay; type: cell-based, Proteus mirabilis; settings: PRMSE, catechol at 4 × MIC for 10 min; CTAB 10 μM; untreated = 100
# Description: as §3, with “Cetyltrimethylammonium bromide (CTAB, Sigma-Aldrich Canada), a cationic detergent that is known to cause membrane damage, is used at concentration of 10 μM as a positive control for membrane disruption.” left out
# [11] = tested on: proton motive force-driven multidrug efflux pump of E. coli CFT073; assay: Ethidium bromide (EtBr) efflux assay; type: cell-based, Escherichia coli; settings: PRMSE, catechol at 0.25 times the MIC; CCCP 100 μM; untreated cells 36.9
# Description: An overnight grown culture of each strain is diluted 1:100 using MHB-II broth to a final volume of 10 mL and grown to an OD600 of 0.8-1.0 (at 37° C., 150 rpm). […] The tubes are incubated for 1 h (37° C., 150 rpm). The inoculum is then adjusted to 0.4 OD600 with MHB-II broth containing 5 μM EtBr and 2 mL aliquots of this mixture are pelleted (5000×g, 10 min at 4° C.). The pellets are incubated on ice immediately, resuspended in 1 mL of MHB-II, and aliquoted (200 μL) into a polystyrene 96 well black, clear-bottom plate (Corning™, Fisher Scientific, ON, Canada). EtBr efflux from the cells is monitored at room temperature using the microplate reader (ex/em 530/600 nm). Readings are taken at 5 min intervals for 1 h to monitor efflux pump activity. The background fluorescence of the medium is subtracted from all measurements and the assay is repeated independently in triplicate.
# [12] = substance alone at sub-lethal concentrations, 16 h
# [13] = with ciprofloxacin, both at sub-lethal concentrations
compound,measurement,setting,value
"Oc1ccccc1O [catechol, 1,2-dihydroxybenzene]",Minimum permeabilization concentration,[1],1 mg/mL
same,inhibition of monoculture biofilm formation (OD570/OD600),[2]; [12],significant inhibitory effects
same,"inhibitory effect on biofilm formation, with ciprofloxacin",[2]; [13],significant inhibitory effects
same,MIC,[3],1250 µg/mL
same,MIC,[4],1250 µg/mL
same,MIC,[5],2500 µg/mL
same,MIC,[6],2500 µg/mL
same,Bacterial colony forming ability (Δ log CFU mL^−1),[7],3.2 Δ log CFU mL^−1
same,Bacterial colony forming ability (Δ log CFU mL^−1),[7]; listed as Catechol,≥ 1.5 Δ log CFU mL^−1
same,inhibition of monoculture biofilm formation (OD570/OD600),[8]; [12],significant inhibitory effects
same,"inhibitory effect on biofilm formation, with ciprofloxacin",[8]; [13],significant inhibitory effects
same,inhibition of monoculture biofilm formation (OD570/OD600),[9]; [12],significant inhibitory effects
same,"inhibitory effect on biofilm formation, with ciprofloxacin",[9]; [13],significant inhibitory effects
same,% cells with uncompromised membrane,[10],50.3%
same,Efflux pump activity,[11],34.3%
